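These data come from cells grown in 96-well plates and exposed to compound for 48 hours at five concentrations. At the GI50, growth is halved. Definition used: TGI = concentration required for complete inhibition of growth.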
Columns and labels:
Assay in all cases: DTP human tumour cell line panel, 48 h
U251 CNS = tested on: U251 CNS
HS 578T breast = tested on: HS 578T breast
NCI-H23 lung = tested on: NCI-H23 lung
NCI-H522 lung = tested on: NCI-H522 lung
MOLT-4 leukemia = tested on: MOLT-4 leukemia
HT29 colon = tested on: HT29 colon
SK-OV-3 ovarian = tested on: SK-OV-3 ovarian
NCI-H460 lung = tested on: NCI-H460 lung
786-0 renal = tested on: 786-0 renal
SR leukemia = tested on: SR leukemia

Cn1cc(C2=C(c3cn(CCCCCN)c4ccccc34)C(=O)NC2=O)c2ccccc21
GI50 (U251 CNS): 10.8 µM
TGI (U251 CNS): > 25 µM
GI50 (HS 578T breast): 11.5 µM
TGI (HS 578T breast): > 25 µM
GI50 (NCI-H23 lung): 9.98 µM
TGI (NCI-H23 lung): > 25 µM
GI50 (NCI-H522 lung): 15.5 µM
TGI (NCI-H522 lung): > 25 µM
GI50 (MOLT-4 leukemia): 8.09 µM
TGI (MOLT-4 leukemia): > 22.9 µM
GI50 (HT29 colon): 7.39 µM
TGI (HT29 colon): > 22.8 µM
GI50 (SK-OV-3 ovarian): 10.9 µM
TGI (SK-OV-3 ovarian): > 25 µM
GI50 (NCI-H460 lung): 9.73 µM
TGI (NCI-H460 lung): > 25 µM
GI50 (786-0 renal): 9.83 µM
TGI (786-0 renal): > 25 µM

COc1cc2c(cc1O)C1Cc3ccc(OC)c(O)c3C(C2)N1C (stereo not given)
TGI (U251 CNS): > 100 µM
TGI (HS 578T breast): > 100 µM
TGI (NCI-H23 lung): > 100 µM
TGI (NCI-H522 lung): > 100 µM
TGI (MOLT-4 leukemia): > 100 µM
TGI (HT29 colon): > 100 µM
TGI (SK-OV-3 ovarian): > 100 µM
TGI (NCI-H460 lung): > 100 µM
TGI (786-0 renal): > 100 µM

COc1ccc2c(c1)[C@@]13CCCC[C@H]1[C@@H](C2)N(C)CC3=O
TGI (U251 CNS): 58.9 µM
TGI (HS 578T breast): 66.6 µM
TGI (NCI-H23 lung): 31.8 µM
TGI (NCI-H522 lung): 32.9 µM
TGI (MOLT-4 leukemia): > 100 µM
TGI (HT29 colon): 37.5 µM
TGI (SK-OV-3 ovarian): 53.9 µM
TGI (NCI-H460 lung): 69.5 µM
TGI (786-0 renal): 32.8 µM
TGI (SR leukemia): 42 µM

O=C(/C=C/c1cc(CN2CCOCC2)c(O)c2ncccc12)c1cc(CN2CCOCC2)c(O)c2ncccc12
GI50 (U251 CNS): < 0.0172 µM
TGI (U251 CNS): 4.95 µM
GI50 (HS 578T breast): 0.0713 µM
TGI (HS 578T breast): > 100 µM
GI50 (NCI-H23 lung): 0.0586 µM
TGI (NCI-H23 lung): > 100 µM
GI50 (NCI-H522 lung): 0.0208 µM
TGI (NCI-H522 lung): > 53.7 µM
GI50 (MOLT-4 leukemia): 0.0529 µM
TGI (MOLT-4 leukemia): > 100 µM
GI50 (HT29 colon): 0.0695 µM
TGI (HT29 colon): > 100 µM
GI50 (SK-OV-3 ovarian): 0.0348 µM
TGI (SK-OV-3 ovarian): 0.357 µM
GI50 (NCI-H460 lung): < 0.0169 µM
TGI (NCI-H460 lung): > 55.9 µM
GI50 (786-0 renal): 0.0802 µM
TGI (786-0 renal): > 32.6 µM
GI50 (SR leukemia): 0.0463 µM
TGI (SR leukemia): > 100 µM

N#CC(=NCCO)C1=C(O)c2ccccc2C1=O
TGI (U251 CNS): > 100 µM
TGI (HS 578T breast): > 100 µM
TGI (NCI-H23 lung): > 100 µM
TGI (NCI-H522 lung): > 100 µM
TGI (MOLT-4 leukemia): > 100 µM
TGI (HT29 colon): > 100 µM
TGI (SK-OV-3 ovarian): > 100 µM
TGI (NCI-H460 lung): > 100 µM
TGI (786-0 renal): > 100 µM
TGI (SR leukemia): > 100 µM

C=C1C(=O)O[C@H]2[C@H]1CC/C(COC(=O)c1ccc(Cl)nc1)=C\CC[C@@]1(C)O[C@@H]21
GI50 (U251 CNS): 4.85 µM
TGI (U251 CNS): 15.9 µM
GI50 (HS 578T breast): 4.56 µM
TGI (HS 578T breast): 36.2 µM
GI50 (NCI-H23 lung): 3.08 µM
TGI (NCI-H23 lung): 12.4 µM
GI50 (NCI-H522 lung): 1.59 µM
TGI (NCI-H522 lung): 3.82 µM
GI50 (MOLT-4 leukemia): 2.57 µM
TGI (MOLT-4 leukemia): 7.2 µM
GI50 (HT29 colon): 1.66 µM
TGI (HT29 colon): 4.11 µM
GI50 (SK-OV-3 ovarian): 14.8 µM
TGI (SK-OV-3 ovarian): 28.5 µM
GI50 (NCI-H460 lung): 5.19 µM
TGI (NCI-H460 lung): 21.4 µM
GI50 (786-0 renal): 1.75 µM
TGI (786-0 renal): 3.53 µM
GI50 (SR leukemia): 0.658 µM
TGI (SR leukemia): 38.8 µM

COc1cc2c3c(n(CCCN(C)C)c(=O)c2cc1OC)-c1ccccc1C3=O
GI50 (U251 CNS): 12.2 µM
TGI (U251 CNS): > 55.9 µM
GI50 (HS 578T breast): 99.7 µM
TGI (HS 578T breast): > 100 µM
GI50 (NCI-H23 lung): 10.6 µM
TGI (NCI-H23 lung): > 72 µM
GI50 (NCI-H522 lung): 5.59 µM
TGI (NCI-H522 lung): > 100 µM
GI50 (MOLT-4 leukemia): 0.463 µM
TGI (MOLT-4 leukemia): 1.73 µM
GI50 (HT29 colon): 0.738 µM
TGI (HT29 colon): 16.6 µM
GI50 (SK-OV-3 ovarian): 29.4 µM
TGI (SK-OV-3 ovarian): > 100 µM
GI50 (NCI-H460 lung): 3.51 µM
TGI (NCI-H460 lung): 21.6 µM
GI50 (786-0 renal): 16 µM
TGI (786-0 renal): 73.9 µM
GI50 (SR leukemia): 0.184 µM
TGI (SR leukemia): 1.82 µM

Nc1nc(SN=Nc2ccc(S(N)(=O)=O)cc2)c2[nH]cnc2n1
GI50 (U251 CNS): 2.66 µM
TGI (U251 CNS): > 100 µM
GI50 (HS 578T breast): 1.81 µM
TGI (HS 578T breast): > 50.2 µM
GI50 (NCI-H23 lung): 0.623 µM
TGI (NCI-H23 lung): > 100 µM
GI50 (NCI-H522 lung): 1.08 µM
TGI (NCI-H522 lung): 43.1 µM
GI50 (MOLT-4 leukemia): 0.32 µM
TGI (MOLT-4 leukemia): 6.93 µM
GI50 (HT29 colon): 0.79 µM
TGI (HT29 colon): > 100 µM
GI50 (SK-OV-3 ovarian): 0.39 µM
TGI (SK-OV-3 ovarian): 13.6 µM
GI50 (NCI-H460 lung): 0.384 µM
TGI (NCI-H460 lung): 13 µM
GI50 (786-0 renal): 0.407 µM
TGI (786-0 renal): > 100 µM
GI50 (SR leukemia): 0.186 µM
TGI (SR leukemia): > 100 µM

O=C(Nc1ccc(Br)cc1)c1ccc(Cl)c(Cl)c1
GI50 (U251 CNS): 3.27 µM
TGI (U251 CNS): > 100 µM
GI50 (HS 578T breast): 3.8 µM
TGI (HS 578T breast): > 100 µM
GI50 (NCI-H23 lung): 2.32 µM
TGI (NCI-H23 lung): 7.32 µM
GI50 (NCI-H522 lung): 2.75 µM
TGI (NCI-H522 lung): 16.2 µM
GI50 (MOLT-4 leukemia): 3.17 µM
TGI (MOLT-4 leukemia): > 100 µM
GI50 (HT29 colon): 3.42 µM
TGI (HT29 colon): > 100 µM
GI50 (SK-OV-3 ovarian): 3.17 µM
TGI (SK-OV-3 ovarian): > 100 µM
GI50 (NCI-H460 lung): 3.16 µM
TGI (NCI-H460 lung): > 30.5 µM
GI50 (786-0 renal): 3.92 µM
TGI (786-0 renal): > 100 µM
GI50 (SR leukemia): 4.35 µM
TGI (SR leukemia): > 100 µM

CC1CCC(=O)C(C(=O)CC2CC(=O)NC(=O)C2)C1 (stereo not given)
TGI (U251 CNS): > 100 µM
TGI (HS 578T breast): > 100 µM
TGI (NCI-H23 lung): > 100 µM
TGI (MOLT-4 leukemia): > 100 µM
TGI (HT29 colon): > 100 µM
TGI (SK-OV-3 ovarian): > 100 µM
TGI (NCI-H460 lung): > 100 µM
TGI (786-0 renal): > 100 µM
TGI (SR leukemia): > 100 µM

Cc1cc(S(=O)(=O)N/N=C(\Sc2cc(Cl)c(C)cc2S(N)(=O)=O)c2ccc(Cl)cc2)c(Cl)cc1Cl
GI50 (U251 CNS): 53.1 µM
TGI (U251 CNS): > 100 µM
GI50 (HS 578T breast): > 100 µM
TGI (HS 578T breast): > 100 µM
GI50 (NCI-H23 lung): 26.7 µM
TGI (NCI-H23 lung): 67.9 µM
GI50 (NCI-H522 lung): 72.7 µM
TGI (NCI-H522 lung): > 100 µM
GI50 (MOLT-4 leukemia): 48.3 µM
TGI (MOLT-4 leukemia): > 100 µM
GI50 (SK-OV-3 ovarian): > 100 µM
TGI (SK-OV-3 ovarian): > 100 µM
GI50 (NCI-H460 lung): > 100 µM
TGI (NCI-H460 lung): > 100 µM
GI50 (786-0 renal): 42.1 µM
TGI (786-0 renal): > 100 µM
GI50 (SR leukemia): 64.2 µM
TGI (SR leukemia): > 100 µM

Cc1cc(I)cc(CN(C)CCCN2CCOCC2)c1O
GI50 (U251 CNS): 36.3 µM
TGI (U251 CNS): > 100 µM
GI50 (HS 578T breast): 13.5 µM
TGI (HS 578T breast): > 100 µM
GI50 (NCI-H23 lung): 72.3 µM
TGI (NCI-H23 lung): > 100 µM
GI50 (MOLT-4 leukemia): 30.2 µM
TGI (MOLT-4 leukemia): > 100 µM
GI50 (HT29 colon): 16.5 µM
TGI (HT29 colon): 33.6 µM
GI50 (SK-OV-3 ovarian): 82.9 µM
TGI (SK-OV-3 ovarian): > 100 µM
GI50 (NCI-H460 lung): 35.4 µM
TGI (NCI-H460 lung): > 100 µM
GI50 (786-0 renal): 27.6 µM
TGI (786-0 renal): > 100 µM
GI50 (SR leukemia): 19.6 µM
TGI (SR leukemia): 48 µM

COc1cccc(/C(COc2ccc3c(c2)oc(=O)c2cc(OC)ccc23)=N/O)c1
GI50 (U251 CNS): 4.35 µM
TGI (U251 CNS): > 100 µM
GI50 (HS 578T breast): 14.5 µM
TGI (HS 578T breast): > 100 µM
GI50 (NCI-H23 lung): 33.4 µM
TGI (NCI-H23 lung): > 100 µM
GI50 (NCI-H522 lung): 3.12 µM
TGI (NCI-H522 lung): 9.47 µM
GI50 (MOLT-4 leukemia): 5.61 µM
TGI (MOLT-4 leukemia): > 100 µM
GI50 (HT29 colon): 3.38 µM
TGI (HT29 colon): > 100 µM
GI50 (SK-OV-3 ovarian): 66.1 µM
TGI (SK-OV-3 ovarian): > 100 µM
GI50 (NCI-H460 lung): 3.81 µM
TGI (NCI-H460 lung): > 100 µM
GI50 (786-0 renal): 9.66 µM
TGI (786-0 renal): > 100 µM

N=C(N)SCc1cccc(-c2nc3ccccc3c(=O)o2)c1
TGI (U251 CNS): > 100 µM
TGI (HS 578T breast): > 100 µM
TGI (NCI-H23 lung): > 100 µM
TGI (NCI-H522 lung): > 100 µM
TGI (HT29 colon): > 100 µM
TGI (SK-OV-3 ovarian): > 100 µM
TGI (NCI-H460 lung): > 100 µM
TGI (786-0 renal): > 100 µM
TGI (SR leukemia): > 100 µM

CCCCC1(CN2CCOCC2)S/C(=N/c2nc(CC(=O)OCC)cs2)NC1=O (stereo not given)
GI50 (U251 CNS): 33.9 µM
TGI (U251 CNS): > 100 µM
GI50 (HS 578T breast): 35.8 µM
TGI (HS 578T breast): > 100 µM
GI50 (NCI-H522 lung): 32.1 µM
TGI (NCI-H522 lung): > 100 µM
GI50 (MOLT-4 leukemia): 27.7 µM
TGI (MOLT-4 leukemia): > 100 µM
GI50 (HT29 colon): 40 µM
TGI (HT29 colon): > 100 µM
GI50 (SK-OV-3 ovarian): 25.9 µM
TGI (SK-OV-3 ovarian): > 100 µM
GI50 (786-0 renal): 37.9 µM
TGI (786-0 renal): > 100 µM
GI50 (SR leukemia): 26.2 µM
TGI (SR leukemia): 65.9 µM

Source: PubChem BioAssay (NCI)
